Reference: patent US20240336629A1, “Tricyclic Derivatives Useful As PARP7 Inhibitors” (JACOBIO PHARMACEUTICALS CO., LTD., priority 2021, published 2024)

How the values were obtained:
[1] = system: lung cancer cell line H1373 (high expression of PARP7); assay: Lung cancer cell proliferation inhibition experiment (CTG method); format: cell-based; conditions: H1373 cells, 144 hrs incubation, Cell Titer Glo
PARP7 enzyme = PARP7 enzyme (Homo sapiens (Human), UniProt Q7Z3E1); assay: PARP7 enzymatic experiment (HTRF assay); format: biochemical; conditions: 4PL fit
PARP7 enzyme, sequence (Q7Z3E1 456-657): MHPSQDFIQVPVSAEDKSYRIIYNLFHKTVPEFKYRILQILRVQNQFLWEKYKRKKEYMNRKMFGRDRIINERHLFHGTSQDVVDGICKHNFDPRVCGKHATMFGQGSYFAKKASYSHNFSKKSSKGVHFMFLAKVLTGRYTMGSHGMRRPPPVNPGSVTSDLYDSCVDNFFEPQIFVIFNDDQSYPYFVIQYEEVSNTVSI

SMILES | IC50 [1] [µM] | IC50 (PARP7 enzyme) [µM] | IC50 ([1]; Homo sapiens, NCI-H1373, 144 h) [µM]
CC(=O)c1c(N[C@@H](C)COCCC(=O)N2CCN3c4ncc(C(F)(F)F)cc4OCC[C@@H]3C2)cn[nH]c1=O (single isomer, unassigned) [Compound 70B] | 0.342 | 0.00754 | –
C[C@@H](COCCC(=O)N1CCN2c3ncc(C(F)(F)F)cc3SCC[C@H]2C1)Nc1cn[nH]c(=O)c1C(F)(F)F (single isomer, unassigned) [Compound 71B] | 0.912 | 0.0149 | –
C[C@@H](COCCC(=O)N1CCN2c3ncc(Br)cc3SCC[C@H]2C1)Nc1cn[nH]c(=O)c1C(F)(F)F (single isomer, unassigned) [Compound 72A] | 0.0133 | 0.000837 | –
C[C@@H](COCCC(=O)N1CCN2c3ncc(C(F)(F)F)cc3C(=O)C[C@@H]2C1)Nc1cn[nH]c(=O)c1C(F)(F)F (single isomer, unassigned) [Compound 76A] | 0.36 | 0.00331 | –
C[C@@H](COCCC(=O)N1CCN2c3ncc(C(F)(F)F)cc3C(=O)C[C@H]2C1)Nc1cn[nH]c(=O)c1C(F)(F)F (single isomer, unassigned) [Compound 76B] | 0.404 | 0.00504 | –
C[C@@H](COCCC(=O)N1CCN2c3ncc(C(F)(F)F)cc3C(F)(F)C[C@@H]2C1)Nc1cn[nH]c(=O)c1C(F)(F)F (single isomer, unassigned) [Compound 77A] | 0.349 | 0.0126 | –
C[C@@H](COCCC(=O)N1CCN2c3ncc(C(F)(F)F)cc3C(F)(F)C[C@H]2C1)Nc1cn[nH]c(=O)c1C(F)(F)F (single isomer, unassigned) [Compound 77B] | 0.334 | 0.004 | –
CC(C)N1C(=O)[C@@H]2CN(C(=O)CCOC[C@H](C)Nc3cn[nH]c(=O)c3C(F)(F)F)CCN2c2ncc(C(F)(F)F)cc21 (single isomer, unassigned) [Compound 83A] | – | 0.00379 | 0.143
CC(C)N1C(=O)[C@H]2CN(C(=O)CCOC[C@H](C)Nc3cn[nH]c(=O)c3C(F)(F)F)CCN2c2ncc(C(F)(F)F)cc21 (single isomer, unassigned) [Compound 83B] | – | 0.00364 | 0.468
C[C@@H]1C[C@@H]2CN(C(=O)CCOC[C@@H]3CCN3c3cn[nH]c(=O)c3C(F)(F)F)CCN2c2ncc(C(F)(F)F)cc21 (single isomer, unassigned) [Compound 94A] | 0.00851 | 0.00237 | –
C[C@@H]1C[C@H]2CN(C(=O)CCOC[C@@H]3CCN3c3cn[nH]c(=O)c3C(F)(F)F)CCN2c2ncc(C(F)(F)F)cc21 (single isomer, unassigned) [Compound 94B] | 0.0133 | 0.00294 | –
C[C@H]1C[C@@H]2CN(C(=O)CCOC[C@@H]3CCN3c3cn[nH]c(=O)c3C(F)(F)F)CCN2c2ncc(C(F)(F)F)cc21 (single isomer, unassigned) [Compound 94C] | 0.00703 | 0.0021 | –
C[C@H]1C[C@H]2CN(C(=O)CCOC[C@@H]3CCN3c3cn[nH]c(=O)c3C(F)(F)F)CCN2c2ncc(C(F)(F)F)cc21 (single isomer, unassigned) [Compound 94D] | 0.0158 | 0.00355 | –
COc1ccc(Cn2ncc(N3CC(C)(C)[C@H]3COCCC(=O)N3CCN4c5ncc(C(F)(F)F)cc5N(C)C(=O)[C@@H]4C3)c(C(F)(F)F)c2=O)cc1 (single isomer, unassigned) [Compound 95A] | 0.0399 | 0.00357 | –
COc1ccc(Cn2ncc(N3CC(C)(C)[C@H]3COCCC(=O)N3CCN4c5ncc(C(F)(F)F)cc5N(C)C(=O)[C@H]4C3)c(C(F)(F)F)c2=O)cc1 (single isomer, unassigned) [Compound 95B] | 0.0485 | 0.00588 | –
CN1C(=O)[C@@H]2CN(C(=O)CCOC[C@@H]3CCCN3c3cn[nH]c(=O)c3C(F)(F)F)CCN2c2ncc(C(F)(F)F)cc21 (single isomer, unassigned) [Compound 98A] | 0.0555 | 0.00125 | –
CN1C(=O)[C@H]2CN(C(=O)CCOC[C@@H]3CCCN3c3cn[nH]c(=O)c3C(F)(F)F)CCN2c2ncc(C(F)(F)F)cc21 (single isomer, unassigned) [Compound 98B] | 0.0371 | 0.00136 | –
CC(=O)c1c(N[C@@H](C)COCCC(=O)N2CCN3c4ncc(C(F)(F)F)cc4N(C)C(=O)[C@@H]3C2)cn[nH]c1=O [Compound 13A] | – | 0.00136 | 0.0357
CC(=O)c1c(N[C@@H](C)COCCC(=O)N2CCN3c4ncc(C(F)(F)F)cc4N(C)C(=O)[C@H]3C2)cn[nH]c1=O [Compound 13B] | – | 0.00173 | 0.0522
CC[C@@H](COCCC(=O)N1CCN2c3ncc(C(F)(F)F)cc3N(C)C(=O)[C@@H]2C1)Nc1cn[nH]c(=O)c1C(F)(F)F [Compound 15A] | – | 0.00193 | 0.0824
CC[C@@H](COCCC(=O)N1CCN2c3ncc(C(F)(F)F)cc3N(C)C(=O)[C@H]2C1)Nc1cn[nH]c(=O)c1C(F)(F)F [Compound 15B] | – | 0.00286 | 0.187
C[C@@H](COCCC(=O)N1CCN2c3ncc(F)cc3N(C)C(=O)[C@H]2C1)Nc1cn[nH]c(=O)c1C(F)(F)F [Compound 19B] | – | 0.00275 | 0.221
C[C@@H](COCCC(=O)N1CCN2c3ncc(Br)cc3N(C)C(=O)[C@@H]2C1)Nc1cn[nH]c(=O)c1C(F)(F)F [Compound 21A] | – | 0.000424 | 0.0809
C[C@@H](COCCC(=O)N1CCN2c3ncc(Br)cc3N(C)C(=O)[C@H]2C1)Nc1cn[nH]c(=O)c1C(F)(F)F [Compound 21B] | – | 0.000812 | 0.0436

SMILES | IC50 [1] [µM] | IC50 (PARP7 enzyme) [µM] | IC50 ([1]; Homo sapiens, NCI-H1373, 144 h) [µM]
CCN1C(=O)[C@@H]2CN(C(=O)CCOC[C@H](C)Nc3cn[nH]c(=O)c3C(F)(F)F)CCN2c2ncc(Cl)cc21 [Compound 22A] | – | 0.000846 | 0.139
CCN1C(=O)[C@H]2CN(C(=O)CCOC[C@H](C)Nc3cn[nH]c(=O)c3C(F)(F)F)CCN2c2ncc(Cl)cc21 [Compound 22B] | – | 0.000969 | 0.0641
CCN1C(=O)[C@H]2CN(C(=O)CCOC[C@H](C)Nc3cn[nH]c(=O)c3C(F)(F)F)CCN2c2ncc(Br)cc21 [Compound 23B] | – | 0.000863 | 0.0461
COC[C@@H](COCCC(=O)N1CCN2c3ncc(C(F)(F)F)cc3N(C(C)C)C(=O)[C@@H]2C1)Nc1cn[nH]c(=O)c1C(F)(F)F [Compound 25A] | – | 0.00372 | 0.0381
COC[C@@H](COCCC(=O)N1CCN2c3ncc(C(F)(F)F)cc3N(C(C)C)C(=O)[C@H]2C1)Nc1cn[nH]c(=O)c1C(F)(F)F [Compound 25B] | – | 0.00536 | 0.0534
CC(=O)c1c(N[C@@H](C)COCCC(=O)N2CCN3c4ncc(C(F)(F)F)cc4N(C4CC4)C(=O)C3C2)cn[nH]c1=O (stereo partly drawn) [Compound 27] | – | 0.00698 | 0.441
C[C@@H](COCCC(=O)N1CCN2c3ncc(F)cc3N(C3CC3)C(=O)[C@@H]2C1)Nc1cn[nH]c(=O)c1C(F)(F)F [Compound 28A] | 0.275 | 0.00753 | –
C[C@@H](COCCC(=O)N1CCN2c3ncc(F)cc3N(C3CC3)C(=O)[C@@H]2C1)Nc1cn[nH]c(=O)c1C(F)(F)F [Compound 28B] | 0.761 | 0.00787 | –
C[C@@H](COC[C@@H](O)C(=O)N1CCN2c3ncc(Cl)cc3OCCC2C1)Nc1cn[nH]c(=O)c1C(F)(F)F (stereo partly drawn) [Compound 64A] | – | 0.0015 | 0.208
CC(=O)c1c(N[C@@H](C)COCCC(=O)N2CCN3c4ncc(C(F)(F)F)cc4OCC3C2)cn[nH]c1=O (stereo partly drawn) [Compound 69] | 0.483 | 0.00392 | –
C[C@@H](COCCC(=O)N1CCN2c3ncc(Cl)cc3SCC[C@@H]2C1)Nc1cn[nH]c(=O)c1C(F)(F)F [Compound 73A] | – | 0.000769 | 0.0223
C[C@@H](COCCC(=O)N1CCN2c3ncc(C(F)(F)F)cc3[C@@](C)(O)[C@@H]2C1)Nc1cn[nH]c(=O)c1C(F)(F)F [Compound 79A] | – | 0.00725 | 0.572
C[C@@H](COCCC(=O)N1CCN2c3ncc(C(F)(F)F)cc3[C@](C)(O)[C@@H]2C1)Nc1cn[nH]c(=O)c1C(F)(F)F [Compound 79B] | – | 0.00467 | 0.341
C[C@@H](COCCC(=O)N1CCN2c3ncc(C(F)(F)F)cc3[C@@](C)(O)[C@H]2C1)Nc1cn[nH]c(=O)c1C(F)(F)F [Compound 79C] | – | 0.00477 | 0.456
C[C@@H](COCCC(=O)N1CCN2c3ncc(C(F)(F)F)cc3[C@](C)(O)[C@H]2C1)Nc1cn[nH]c(=O)c1C(F)(F)F [Compound 79D] | – | 0.00318 | 0.742
C[C@@H](COCCC(=O)N1CCN2c3ncc(C(F)(F)F)cc3C(O)CC2C1)Nc1cn[nH]c(=O)c1C(F)(F)F (stereo partly drawn) [Compound 80] | 0.151 | 0.000946 | –
C[C@H](COCCC(=O)N1CCN2c3ncc(Cl)cc3N(C)C(=O)[C@H]2C1)Nc1cn[nH]c(=O)c1C(F)(F)F [Compound 82B] | – | 0.000892 | 0.0216
Cc1c(Cl)cnc2c1OCC[C@H]1CN(C(=O)CCOC[C@H](C)Oc3cn[nH]c(=O)c3C(F)(F)F)CCN21 [Compound 85B] | – | 0.00784 | 0.311
C[C@@H](COCCC(=O)N1CCN2c3ncc(C(F)(F)F)cc3SCC[C@H]2C1)Oc1cn[nH]c(=O)c1C(F)(F)F [Compound 86B] | – | 0.0205 | 0.246
CN1C(=O)[C@@H]2CN(C(=O)CCOC[C@@H]3CCN3c3cn[nH]c(=O)c3C(F)(F)F)CCN2c2ncc(Cl)cc21 [Compound 88A] | – | 0.000416 | 0.00217
CN1C(=O)[C@H]2CN(C(=O)CCOC[C@@H]3CCN3c3cn[nH]c(=O)c3C(F)(F)F)CCN2c2ncc(Cl)cc21 [Compound 88B] | – | 0.000446 | 0.00294
O=C(CCOC[C@@H]1CCN1c1cn[nH]c(=O)c1C(F)(F)F)N1CCN2c3ncc(C(F)(F)F)cc3OC[C@@H]2C1 [Compound 89A] | – | 0.000696 | 0.0106
O=C(CCOC[C@@H]1CCN1c1cn[nH]c(=O)c1C(F)(F)F)N1CCN2c3ncc(C(F)(F)F)cc3OC[C@H]2C1 [Compound 89B] | – | 0.000658 | 0.00692
O=C(CCOC[C@@H]1CCN1c1cn[nH]c(=O)c1C(F)(F)F)N1CCn2c(cc3cc(C(F)(F)F)cnc32)C1 [Compound 91] | – | 0.000496 | 0.0113
